One series has as its target T1, recombinant human ATase (Homo sapiens, UniProt P16455).
T1 construct: made in house
T1 sequence (P16455 1-207): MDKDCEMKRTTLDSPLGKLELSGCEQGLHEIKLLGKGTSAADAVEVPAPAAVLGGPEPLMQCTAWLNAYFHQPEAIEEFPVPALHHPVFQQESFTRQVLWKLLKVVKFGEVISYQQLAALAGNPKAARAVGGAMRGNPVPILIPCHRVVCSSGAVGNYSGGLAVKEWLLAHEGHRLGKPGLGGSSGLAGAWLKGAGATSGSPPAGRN
The experiment in a line: In vitro ATase inactivation assay (incubation with inactivators and ATase assay). The conditions noted are these: for ATase inactivation in vitro, result in words: recombinant human ATase, standard conditions. It counts as biochemical. The procedure: The cDNA cloning and overexpression of the human ATase has been reported previously^23. Purification of the recombinant proteins was achieved either by affinity chromatography through a DNA-cellulose column as described by Wilkinson et al.,^25, 26 or by DEAE-cellulose ion-exchange chromatography. For the latter, the ATase protein was partially purified by ammonium sulphate precipitation (30-60%) and dialysed against 10 mM Tris-HCl pH 7.5, 1 mM DTT, 2 mM EDTA, 10% glycerol, before loading on a DEAE-cellulose column. The ATase was then eluted with a 0-0.1 M NaCl gradient.
Compounds to be tested were dissolved in DMSO to a final concentration of 10 mM and diluted just before use in buffer I containing 1 mg/ml bovine serum albumin (IBSA). Recombinant ATase was diluted in IBSA and titrated in order that the reaction be conducted under ATase, and not substrate, limiting conditions. […] Following acid hydrolysis of the DNA as previously described^21 the [^3 H]-methylated protein was recovered and quantitated by liquid scintillation counting. Samples were typically assayed in duplicate and experiments repeated several times. I50 is the concentration of inactivator required to produce a 50% reduction in ATase activity.

A further series relates to Raji cells. The experiment in a line: Sensitization of Raji cells to temozolomide (XTT assay). The series is classed as cell-based, human. The procedure:
Following a 2 hour incubation at 37° C., medium containing either increasing doses of BCNU, temozolomide or equivalent vehicle was added and the cells allowed to grow for 6 days. At this time XTT solution was added and the cells incubated for a further 4 hours at 37° C. The resulting red/orange formazan reaction product was quantified by measuring absorption at 450 nm on a microtitre platereader.

A further series has as its target T2, ATase (Mus musculus, UniProt P26187).
T2 construct: Effect of B.4280 on ATase activity in several tissues of nude mice; from tissue; host or cells: liver, lung, kidney, spleen, brain, testis and bone marrow of nu/nu mice
T2 sequence (P26187 1-211): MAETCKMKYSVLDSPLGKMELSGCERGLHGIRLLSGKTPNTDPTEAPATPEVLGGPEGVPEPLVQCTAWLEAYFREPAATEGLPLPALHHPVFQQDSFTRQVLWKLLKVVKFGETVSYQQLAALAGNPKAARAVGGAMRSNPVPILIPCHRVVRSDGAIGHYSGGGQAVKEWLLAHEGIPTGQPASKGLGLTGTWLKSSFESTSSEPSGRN
As to the kind of experiment: ATase activity in tissues of nude mice after inactivator. It counts as in vivo. The settings on record: for inactivation of ATase in mouse tissues, in words: single dose (FIG. 18, Table 10). The procedure:
ATase substrate DNA was prepared by incubation of purified calf thymes DNA with N-[^3 H]-methyl-N-nitrosuourea (18.7 Ci/mmole, Amersham International). Cell or tissue extracts (see 4.4) were incubated with [^3 H]-methylated-DNA substrate (100 μl containing 6.7 μg of DNA and 100 fmol of O^6 -[^3 H]methylguanine) at 37° C. for 60 mins. Following acid hydrolysis of the DNA as precviously described^21the [^3 H]-methylated protein was recovered and quantitated by liquid scintillation counting. […]
The mice in the tests shown in FIGS. 17 and 18 were BALB-C derived athymic male mice (nu/nu athymic) from the in-house breeding colony at the Paterson Institute for Cancer Research as described above (Animal Services Unit-ASU Mice).
Animals were given a single dose of B.4280 (10 mg/kg i.p.) and sacrificed

Series [1] concerns human melanoma xenografts. The experiment in a line: Sensitization of human melanoma xenografts to temozolomide. The settings on record: for sensitizing human melanoma xenografts to growth inhibitory effects of temozolomide, in words: inactivator i.p. 1 hour before temozolomide 100 mg/kg i.p., five consecutive days (FIGS. 21A, 22A). The series is classed as in vivo, nude mice. The procedure:
Xenograft tumour measurements were taken every 1-2 days by workers using digital calipers. Tumour volume was calculated using the formula (h×w×l)π/6. The experimental animals were also weighed every 1-2 days. Measurements continued until tumours in the control animals reached the maximum allowable volume (i.e. 1 cm×1 cm×1 cm).
Mice were treated with the inactivator as a suspension in corn oil by intraperitoneal injection (i.p.) or by oral gavage (p.o.) 60 mins prior to temozolomide (100 mg/kg in 20% DMSO in phosphate-buffered saline) which was always given by intraperitoneal injection: this schedule was repeated on days 1 to 5 inclusive. Controls received vehicle alone, inactivator alone or temozolomide alone.
The mice in the tests shown in FIGS. 19-24 were Swiss mouse derived athymic male mice ([…]) from ZENECA Pharmaceuticals, Mereside, Alderley Park, Macclesfield, Cheshire SK10 4T6, England.

For the next series, the system named is DBA2 mice. The experiment in a line: Toxicity of inactivators in combination with temozolomide in non-tumour-bearing DBA2 mice. It counts as in vivo, mouse. The conditions noted are these: 20 mg/kg inactivator + temozolomide 100 mg/kg i.p., four consecutive days (FIG. 25). The procedure:
FIG. 25 is a graph showing the survival of animals in a comparative test of toxicity of BeG, B.4205 and B.4280 in combination with temozolomide (TZ) in non-tumour-bearing DBA, mice. Animals were given temozolomide alone (100 mg/kg i.p) or BeG (10 or 20 mg/kg i.p.), B.4205 (10 or 20 mg/kg i.p.) or B.4280 (10 or 20 mg/kg i.p.) followed one hour later by temozolomide (100 mg/kg i.p.) on four consecutive days. The vehicles were corn oil for the inactivators and PBS (20% DMSO) for temozolomide.

The values that follow come from patent US6043228A, “O^6 -substituted guanine derivatives, a process for their preparation and their use in treating tumor cells” (Cancer Research Campaign Technology Limited, priority 1993, dated 2000).

pIC50: −log10 of the molar value. “Also recorded” adds a separate entry of the source.

Take `Nc1nc(OCc2cccs2)c2nc[nH]c2n1` [B.4205, 0^6 -thenylguanine]: the “ATase inactivation in vitro, result in words” value at recombinant human ATase is “considerably better; also recorded: I50 values lower than that of BeG”. Further, the “sensitising Raji cells to growth inhibitory effects of temozolomide, in words” value with Raji cells (0.1 μM inactivator (FIG. 3)) was “more effective than BeG”. In addition, the “dose response of Raji sensitization to temozolomide, in words” value in the series on Raji cells (0.1-5.0 μM inactivator (FIGS. 3, 4)) was “lack of dose response”. Moreover, the “inactivation of ATase in mouse tissues, in words” value on ATase is given as “able to inactivate ATase in most mouse tissues examined but there was less inactivation in brain than other tissues”. Besides, in series [1], the “sensitizing human melanoma xenografts to growth inhibitory effects of temozolomide, in words” value is “effective in sensitizing”. For the same molecule, the “acute toxicity in combination with temozolomide in DBA2 mice, in words” value in the series on DBA2 mice is on record as “less acutely toxic than BeG”.

Turning to `Nc1nc(OCc2cc(Br)cs2)c2nc[nH]c2n1` [B.4280, O^6-(4-bromothenyl)guanine], the pIC50 on recombinant human ATase is 8.47. Moreover, the “ATase inactivation in vitro, result in words” value on recombinant human ATase is “more efficient in inactivating ATase in vitro than its 5-bromo analogue B.4269; also recorded: more efficient than the unsubstituted thenyl derivative B.4205”. Further, in the series on Raji cells (0.5 μM inactivator, 2 hours before temozolomide (FIG. 16)), the “sensitization of Raji cells to temozolomide, in words” value is reported as “much more effective than either B.4205 or BeG”. Besides, the “ATase mean activity (fm/mg)” value at ATase (Bone Marrow (pooled), 24 h after 10 mg/kg i.p.) is given as 42 fm/mg; at ATase (Bone Marrow (pooled), 48 h after 10 mg/kg i.p.), 61 fm/mg; at ATase (Brain, 24 h after 10 mg/kg i.p.), 13.7 ± 2.05 fm/mg; on ATase (Brain, 48 h after 10 mg/kg i.p.), 16.3 ± 1.25 fm/mg; on ATase (Kidney, 24 h after 10 mg/kg i.p.) it was 24.3 ± 4.03 fm/mg; on ATase (Kidney, 48 h after 10 mg/kg i.p.), 28.7 ± 4.11 fm/mg. Further, the “ATase mean activity (fm/mg)” value at ATase (Liver, 24 h after 10 mg/kg i.p.) was 89.7 ± 10.14 fm/mg; at ATase (Liver, 48 h after 10 mg/kg i.p.), 100.7 ± 8.73 fm/mg; at ATase (Lung, 24 h after 10 mg/kg i.p.) it was 15.3 ± 2.05 fm/mg; on ATase (Lung, 48 h after 10 mg/kg i.p.), 24 ± 2.83 fm/mg; on ATase (Spleen, 24 h after 10 mg/kg i.p.), 41 ± 5.35 fm/mg; at ATase (Spleen, 48 h after 10 mg/kg i.p.), 68.3 ± 9.53 fm/mg. The “ATase mean activity (fm/mg)” value on ATase (Testis, 24 h after 10 mg/kg i.p.) turned out to be 45 ± 7.48 fm/mg; at ATase (Testis, 48 h after 10 mg/kg i.p.), 44 ± 1.41 fm/mg. For the same molecule, at ATase, the “inactivation of ATase in mouse tissues, in words” value is recorded as “able to inactivate ATase in most tissues”. In series [1] (30 mg/kg p.o. vs 20 mg/kg i.p. (FIG. 24A)), the “oral versus i.p. administration in sensitizing xenografts to temozolomide, in words” value was “almost as effective as i.p. administration”. Besides, the “sensitizing human melanoma xenografts to growth inhibitory effects of temozolomide, in words” value in series [1] is reported as “effective in sensitizing; also recorded: about twice as effective as B.4205”. Also, the “acute toxicity in combination with temozolomide in DBA2 mice, in words” value in the series on DBA2 mice is reported as “less acutely toxic than BeG; also recorded: less acutely toxic than B.4205”.
